{
  "source": "patent US20180369268A1",
  "about": "“METHODS FOR IDENTIFYING INHIBITORS OF \"STIMULATOR OF INTERFERON GENE\"- DEPENDENT INTERFERON PRODUCTION” (ADURO BIOTECH, INC., priority 2015, published 2018)",
  "note": "pIC50: −log10 of the molar value.",
  "data": [
    {"target": "T1, hSTING HAQ allele (Homo sapiens, UniProt Q86WV6, G230A/H232R/R293Q)", "T1 construct": "DNA encoding amino acids 140-379 (amino acid numbering corresponding to Swiss Prot Q86WV6); 6xHIS-SUMO (with TEV site) (N, cleaved yes); made in house; host or cells: Rosetta2 (DE3) E. coli", "T1 sequence (Q86WV6 140-379 G230A/H232R/R293Q)": "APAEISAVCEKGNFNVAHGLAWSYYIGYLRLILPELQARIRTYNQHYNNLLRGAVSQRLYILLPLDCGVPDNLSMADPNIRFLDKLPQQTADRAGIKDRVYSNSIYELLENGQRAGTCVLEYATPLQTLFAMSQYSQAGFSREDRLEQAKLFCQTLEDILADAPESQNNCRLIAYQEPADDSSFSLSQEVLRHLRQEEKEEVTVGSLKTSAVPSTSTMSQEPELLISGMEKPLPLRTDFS", "assay": "Differential scanning fluorometry (DSF) Tm shift with purified STING AA140-379", "assay_type": "binding", "details": "DSF, ligand 1 mM, 1 mg/ml STING AA140-379; read-out: hSTING Tm Shift HAQ", "description": "(§1) DNA encoding amino acids 140-379 (amino acid numbering corresponding to Swiss Prot Q86WV6) was amplified from plasmids containing the full length sequence of human STING alleles via polymerase chain reaction with the following primers: forward […] (SEQ ID NO: 9) and reverse […] (SEQ ID NO: 10). STING variant alleles were assigned according to Yi, et al, (2013), PLoS One, 8(10), e77846 (DOI: 10.1371/journal.pone.0077846. PCR products were cloned into bacterial expression vector encoding a N-terminal hexa-histidine affinity tag (6×HIS) followed by a small ubiquitin-like modifier (SUMO) solubility sequence (Butt, et al, (2005) Protein expression and purification 43.1, 1-9) and tobacco etch virus protease cleavage site (TEV) using ligation independent cloning (Aslanidis, et al, (1990) Nucleic acids research, 18.20, 6069-6074).\n(§2) Plasmids encoding 6×HIS-SUMO-TEV-STING amino acids 140-379 were transformed into Rosetta2 (DE3) E. coli cells (EMD Millipore) for protein expression. Cells were grown in lysogeny broth at 37° C. until a […] absorbance of 0.6 was reached. Cells were then transferred to 18° C. and protein expression was induced overnight by the addition of isopropyl β-D-1-thiogalactopyranoside to the media at a concentration of 0.25 mM. Cells were harvested by centrifugation at 6,000 times gravity for 10 minutes. Cell pellets were re-suspended on ice in a buffer containing 50 mM Tris hydrochloride (Tris-HCl) pH 7.5, 500 mM sodium chloride (NaCl), 20 mM imidazole, 10% glycerol, 1 mM tris(2-carboxyethyl)phosphine hydrochloride (TCEP) and protease inhibitor tablet (Pierce) (Buffer A). Cells were lysed using an S-450D sonifier (Emmerson industrial) on ice. Cell lysate was centrifuged at 15,000 times gravity for 30 minutes at 4° C. Soluble material was applied to nickel-nitrilotriacetic acid (Ni-NTA) coupled Sepharose CL-6B (Qiagen) for 1 hour with gentle rocking at 4° C. After transfer to a gravity flow poly-prep column (Bio-Rad), resin was washed extensively in buffer A. Protein was eluted from the column in a buffer containing 20 mM Tris-HCl pH 7.5, 150 mM NaCl, 300 mM imidazole, 10% glycerol and 0.5 mM TCEP. To remove the 6×HIS-SUMO tag eluted protein was mixed with TEV protease (Sigma) at a ratio of 1:250 (w:w) and dialyzed overnight against a buffer containing 20 mM Tris-HCl pH 7.5, 150 mM NaCl, 5 mM imidazole, 10% glycerol and 0.5 mM TCEP. TEV protease and 6×HIS-SUMO tags were depleted by the addition of Ni-NTA resin (Qiagen) to the sample, purified STING amino acids 140-379 was collected by removal of the resin using a poly-prep column STING AA140-379 was concentrated with a 10,000 Dalton molecular weight cutoff centrifuge concentrator (EMD Millipore) to a final concentration of approximately 10 mg/ml. Protein was aliquoted, flash frozen in liquid nitrogen and stored at −80° C. until use.\n(§3) Differential scanning fluorometry (DSF) is a technique that measures the ability of ligands to bind to and stabilize purified proteins (Niesen, et al, (2007) Nature protocols 2.9, 2212-2221). The protein is heated in the presence of a dye that binds to and fluoresces in hydrophobic environments. The protein is thermally denatured by heating resulting in increased dye binding to the unfolded protein and fluorescence. The temperature midpoint (Tm) of a proteins denaturation is established by calculating the half maximal value of the denaturation curve. The temperature midpoint of the protein in the presence of a ligand is directly related to the affinity of the ligand for the protein and therefore its ability to stabilize the protein at higher temperatures.\n(§4) DSF was performed in a 20 μL reaction comprising 20 mM Tris-HCl pH 7.5, 150 mM NaCl, 1:500 dilution of SYPRO Orange (Life Technologies), 1 mg/ml purified STING AA140-379 protein and ligand at a concentration of 1 mM. Wild type hSTING, HAQ allele hSTING and/or REF allele hSTING were used with scaffold molecules of the invention as listed in Table 2.", "units": {"ΔTm at 1000 µM": "°C"}, "values": [
      {"smiles": "C#CCOc1nc(N)nc2c1ncn2[C@@H]1O[C@@H]2COP(=O)(O)O[C@H]3[C@@H](O)[C@H](n4cnc5c(OCC#C)nc(N)nc54)O[C@@H]3COP(=O)(O)O[C@H]2[C@H]1O", "note": "[compound 26, (2R,3R,3aS,7aR,9R,10R,10aS,14aR)-2,9-bis(2-amino-6-(prop-2-yn-1-yloxy)-9H-purin-9-yl)-3,5,10,12-tetrahydroxyoctahydro-2H,7H-difuro[3,2-d: 3′,2′-j][1,3,7,9]tetraoxa[2,8]diphosphacyclododecine 5,12-dioxide]", "ΔTm at 1000 µM": 5.4},
      {"smiles": "CC(C)C(=O)Nc1nc2c(ncn2[C@@H]2O[C@@H]3CO[P@@](=O)(S)O[C@H]4[C@@H](F)[C@H](n5cnc6c(=O)[nH]c(NC(=O)C(C)C)nc65)O[C@@H]4CO[P@](=O)(S)O[C@H]3[C@H]2F)c(=O)[nH]1", "note": "[Compound 32a, N,N′-(((2R,3R,3aR,5R,7aR,9R,10R,10aR,12S,14aR)-3,10-difluoro-5,12-dimercapto-5,12-dioxidooctahydro-2H,7H-difuro[3,2-d:3′,2′-j][1,3,7,9]tetraoxa[2,8]diphosphacyclododecine-2,9-diyl)bis(6-oxo-6,9-dihydro-1H-purine-9,2-diyl))bis(2-methylpropanamide)]", "ΔTm at 1000 µM": 9.9},
      {"smiles": "CC(C)C(=O)Nc1nc2c(ncn2[C@@H]2O[C@@H]3CO[P@](=O)(S)O[C@@H]4[C@H](O)[C@@H](CO[P@@](=O)(S)O[C@H]3[C@H]2O)O[C@H]4n2cnc3c(NC(=O)c4ccccc4)ncnc32)c(=O)[nH]1", "note": "[Compound 42a, dithio-[RP, SP]-cyclic-[ibG(3′,5′)p-BzA(2′,5′)p]]", "ΔTm at 1000 µM": 4.2}
    ]},
    {"target": "T1, hSTING HAQ allele", "assay": "Differential scanning fluorometry (DSF) Tm shift with purified STING AA140-379", "assay_type": "binding", "details": "read-out: hSTING Tm Shift HAQ", "description": "as §1, §2, §3, §4", "units": {"ΔTm at 1000 µM": "°C"}, "values": [
      {"smiles": "CC(C)(C)[Si](C)(C)O[C@H]1[C@H]2O[P@@](=O)(S)OC[C@H]3O[C@@H](n4cnc5c(N)nc(N)nc54)[C@H](O)[C@@H]3O[P@](=O)(S)OC[C@H]1O[C@H]2n1cnc2c(N)ncnc21", "note": "[Compound 12a, dithio-[SP, RP]-cyclic-[A(2′,5′)p-2,6-DAP(3′,5′)p]]", "ΔTm at 1000 µM": 14.5},
      {"smiles": "CC(C)(C)[Si](C)(C)O[C@H]1[C@H]2O[P@](=O)(S)OC[C@H]3O[C@@H](n4cnc5c(N)nc(N)nc54)[C@H](O)[C@@H]3O[P@](=O)(S)OC[C@H]1O[C@H]2n1cnc2c(N)ncnc21", "note": "[Compound 12, dithio-[RP, RP]-cyclic-[A(2′,5′)p-2,6-DAP(3′,5′)p]]", "ΔTm at 1000 µM": 14.3},
      {"smiles": "CC(C)(C)[Si](C)(C)O[C@H]1[C@H]2O[P@](=O)(S)OC[C@H]3O[C@@H](n4cnc5c(N)ncnc54)[C@H](F)[C@@H]3O[P@](=O)(S)OC[C@H]1O[C@H]2n1cnc2c(N)ncnc21", "note": "[Compound 6, dithio-[RP, RP]-cyclic-[3′OTBS-A(2′,5′)p-2′F-A(3′,5′)p]]", "ΔTm at 1000 µM": 18.1}
    ]},
    {"target": "T2, STING in THP1 cells (HAQ allele) (Homo sapiens, UniProt Q86WV6, G230A/H232R/R293Q/R71H)", "T2 construct": "host or cells: THP-1 dual reporter cells", "T2 sequence (Q86WV6 whole entry R71H/G230A/H232R/R293Q)": "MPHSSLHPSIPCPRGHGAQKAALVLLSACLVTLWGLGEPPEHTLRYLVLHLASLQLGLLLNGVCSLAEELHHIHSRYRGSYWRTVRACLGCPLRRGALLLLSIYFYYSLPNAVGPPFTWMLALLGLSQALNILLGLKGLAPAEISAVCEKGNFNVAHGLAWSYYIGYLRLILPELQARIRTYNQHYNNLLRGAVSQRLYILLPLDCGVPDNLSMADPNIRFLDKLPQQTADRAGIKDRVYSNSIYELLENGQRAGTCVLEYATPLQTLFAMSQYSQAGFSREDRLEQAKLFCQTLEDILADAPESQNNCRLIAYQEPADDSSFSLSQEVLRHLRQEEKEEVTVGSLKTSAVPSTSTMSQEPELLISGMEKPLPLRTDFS", "assay": "THP-1 competition assay with STING agonist 2′3′-RR-(A)(A) (IRF-3 luciferase reporter)", "assay_type": "cell-based", "details": "not given", "protocol": "The scaffold molecules and STING inhibitory compounds as described herein are assayed for their ability to inhibit the induction of STING dependent IFN-β production by an agonist compound in a competition assay. Relative induction of IRF-3 signaling in THP-1 cells (HAQ allele) was measured after stimulating the cells with a mix of a scaffold molecule (or any putative STING antagonist) titrated against a constant concentration of the STING agonist 2′3′-RR-(A)(A) in PB buffer (50 mM HEPES pH 7.5, 100 mM KCl, 3 mM MgCl2, 0.1 mM DTT, 85 mM sucrose, 0.2% BSA, 1 mM ATP, 0.1 mM GTP).\nOne day prior to performing the assay, THP-1 dual (Invivogen) reporter cells were plated at 500,000 cells/mL in 200 μL per well in a 96-well plate and differentiated overnight with 3 μg/mL phorbal myristate acetate in RPMI medium 1640 (4.5 g/L D-glucose, 2.383 g/L HEPES, 300 mg/L L-glutamine, 1.5 g/L sodium bicarbonate, 110 mg/L sodium pyruvate, 10% heat-inactivated fetal bovine serum, 1× penicillin/streptomycin, 0.1 mg/mL normocin).\nOn the day of the assay, the media was removed from the wells and replaced with 150 μL of fresh media. The titrations against 2′ 3′-RR-(A)(A) in a final volume of 100 μL were made as follows: two-fold dilutions (2,000 μM-3.9 μM) of the scaffold molecule into PB buffer containing 100 μM 2′3′-RR-(A)(A) for a final concentration of 50 μM 2′3′-RR-(A)(A). Compounds were tested in biological triplicate.\nThe cells were then stimulated with 25 μL of each titration for 30 minutes at 37° C. in a CO2 incubator. After stimulating, the cells were washed twice, first with 100 μL and then 150 μL of fresh media. After washing, 150 μL of media was added to each well and the cells were incubated for 17 hours overnight at 37° C. in a CO2 incubator.\nTo detect IRF-3 signaling, 50 μL of luciferase substrate (Invivogen QUANTI-Luc coelenterazine-based luminescence reagent reconstituted in 25 mL water) was added to 10 μL of supernatant from each well in a 96-well white opaque plate. Luminescence was measured using a SpectraMax M3 plate reader (Molecular Devices) and relative fold-induction was calculated as the values obtained from wells containing both the scaffold molecule and 2′3′-RR-(A)(A) divided by the values obtained from wells containing 2′3′-RR-(A)(A) alone. The average of the relative fold-induction was plotted against the log concentration of the antagonist. Agonist compounds 2′3′-RR-(G)(A) and RR-(A)(A) were run as controls in this assay (see FIGS. 2A and 2B).\nThe results are provided for control compounds in FIGS. 2A and 2B and scaffold molecules in FIGS. […]: 2′3′-SR-(3′OTBS-A)(2′F-A) (FIG. 3A, Comp. 6a), SR-(2′F-A)(2′OTBS-A) (FIG. 3B, Comp. 18a), RR-(2,6-DAP)(2,6-DAP) (FIG. 3C, Comp. 23), RS-(2,6-DAP)(2,6-DAP) (FIG. 3D, Comp. 23a), (6-O-propargyl-G)(G) (FIG. 3E, Comp. 25), RR-(2′F-ibG)(2′F-ibG) (FIG. 3F, Comp. 32), RR-(2′F-C)(2′F-A) (FIG. 3G, Comp. 37), RS-(2′F-C)(2′F-A) (FIG. 3H, Comp. 37a), 3′2′-RR-(ibG)(BzA) (FIG. 3I, Comp. 42), 3′2′-SS-(G)(A) (FIG. 3J, Comp. 43), dithio-3′2′-(2′OTBS-G)(3′OTBS-A) isomer 1 (FIG. 3K, Comp. 49, isomer 1), dithio-3′2′-(2′OTBS-G)(3′OTBS-A) isomer 2 (FIG. 3L, Comp. 49, isomer 2), Beta-L-SS-(A)(A) (FIG. 3M, Comp. 48), Beta-L-RS-(A)(A) (FIG. 3N, Comp. 48a), and Beta-L-RR-(A)(A) (FIG. 3O, Comp. 48b). Isomer 1 and 2 of Compound 49 are different isomers, and are each one of compound 49a, 49b, 49c or 49d.", "values": [
      {"smiles": "CC(C)(C)[Si](C)(C)O[C@@H]1[C@@H]2OP(=O)(S)OC[C@H]3O[C@@H](n4cnc5c(N)ncnc54)[C@H](OP(=O)(S)OC[C@H]2O[C@H]1n1cnc2c(=O)[nH]c(N)nc21)[C@@H]3O[Si](C)(C)C(C)(C)C", "note": "(single isomer, unassigned) [compound 49 isomer 1, dithio-3′2′-(2′OTBS-G)(3′OTBS-A) isomer 1]", "pIC50": 3.96},
      {"smiles": "CC(C)(C)[Si](C)(C)O[C@@H]1[C@@H]2O[P@](=O)(S)OC[C@H]3O[C@@H](n4cnc5c(N)ncnc54)[C@H](F)[C@@H]3O[P@@](=O)(S)OC[C@H]2O[C@H]1n1cnc2c(N)ncnc21", "note": "[Compound 18a, (2R,3R,3aR,5R,7aR,9R,10R,10aR,12S,14aR)-2,9-bis(6-amino-9H-purin-9-yl)-3-((tert-butyldimethylsilyl)oxy)-10-fluoro-5,12-dimercaptooctahydro-2H,7H-difuro[3,2-d:3′,2′-j][1,3,7,9]tetraoxa[2,8]diphosphacyclododecine 5,12-dioxide]", "pIC50": 2.68},
      {"smiles": "CC(C)(C)[Si](C)(C)O[C@@H]1[C@@H]2OP(=O)(S)OC[C@H]3O[C@@H](n4cnc5c(N)ncnc54)[C@H](OP(=O)(S)OC[C@H]2O[C@H]1n1cnc2c(=O)[nH]c(N)nc21)[C@@H]3O[Si](C)(C)C(C)(C)C", "note": "(single isomer, unassigned) [compound 49 isomer 2, dithio-3′2′-(2′OTBS-G)(3′OTBS-A) isomer 2]", "pIC50": 3.38}
    ]}
  ]
}
